Values quoted from earlier work, collected in patent publication US8871750B2, “Use of aromatase inhibitors for endometrial thinning in preparation for surgical procedures on the endometrial cavity and uterus” (Wayne State University, priority 2004, dated 2014).

Columns and labels:
endometrium [1] = conditions: small, randomized study
[2] = postmenopausal breast cancer treatment
endometrium [3] = conditions: in vivo

## C#C[C@]1(O)CC[C@H]2[C@@H]3CCC4=CC(=O)CC[C@@H]4[C@H]3CC[C@@]21C [norethisterone]
Endometrium [1]
  effect on endometrial thickness: no effect

## CC(=O)O[C@]1(C(C)=O)CC[C@H]2[C@@H]3C[C@H](C)C4=CC(=O)CC[C@]4(C)[C@H]3CC[C@@]21C [medroxyprogesterone acetate]
Endometrium [1]
  effect on endometrial thickness: no effect

## CCC1(c2ccc(N)cc2)CCC(=O)NC1=O (centres unmarked) [aminoglutethimide]
[2]
  patients stopping treatment because of side effects (lethargy, rashes, nausea, fever): 8-15%

## CC(=O)O[C@]1(C(C)=O)CC[C@H]2[C@@H]3C=C(Cl)C4=CC(=O)[C@@H]5C[C@@H]5[C@]4(C)[C@H]3CC[C@@]21C [cyproterone acetate]
Endometrium [1]
  effect on endometrial thickness: significant reduction

## CC#C[C@]1(O)CC[C@H]2[C@@H]3CCC4=CC(=O)CCC4=C3[C@@H](c3ccc(N(C)C)cc3)C[C@@]21C [mifepristone]
Endometrium [3]
  effect on endometrium and menstrual bleeding: marked endometrial ECM breakdown and excessive menstrual bleeding
